Data set [1] deals with endothelin-1 (ET-1)-induced ischemia/reperfusion injury of optic nerve head and retina. As to the kind of experiment: OA-RI by Echo-Color-Doppler, Compound (I) vs des-nitro Compound (Ia) (Example 2). The class given is in vivo, rabbits. The settings on record: for OA-RI, ET-1 + treatment Week 3 / OA-RI, ET-1 + treatment Week 4 / OA-RI, ET-1 + treatment Week 5 / OA-RI, ET-1 + treatment Week 6: Cpd (I) 1.0% / Cpd (Ia) 0.93% (equimolar), topical twice daily from week 3; for OA-RI, ET-1 (1st dose) Week 2: ET-1 only, before treatment; for Effect on OA-RI / ocular perfusion (in words): ET-1 rabbit model, equimolar doses, weeks 3-6; for OA-RI, Baseline Week 0: before ET-1 and treatment. As to the method:
This study evaluated the ocular hemodynamic effects of repeated topical ocular dosing of Compound (I) in comparison to its des-nitro derivative Compound (Ia) administered at equimolar doses in rabbits with endothelin-1 (ET-1)-induced ischemia/reperfusion injury of optic nerve head and retina. Method: ET-1 was injected next to the optic nerve head twice/week for 6 weeks. Animals received Compound (I) (1% twice daily, 6 days/week), Compound (Ia) (0.93%, equimolar to 1% Compound (I)) or vehicle from week 3 until the end of ET-1 treatment. Functional endpoint was ophthalmic artery resistive index (OA-RI) determined using an Echo-Color-Doppler.

Data set [2] deals with ischemia/reperfusion injury of the optic nerve induced by the subtenon injection of endothelin-1 (ET-1) in rabbits. Nature of the data set: Ophthalmic artery resistive index (OA-RI) by Echo Color Doppler, ET-1 ischemia/reperfusion model (Example 1). The format is in vivo, New Zealand white (NZW) rabbits. The settings on record: for Ophthalmic artery resistive index (OA-RI), Baseline: prior to ET-1 dosing (time 0), before test item; for OA-RI, ET-1 (4-weeks) + Test items (2 weeks daily bid): week 4; for OA-RI, ET-1 (4-weeks) + Test items (2 weeks daily bid) / OA-RI, ET-1 (6 weeks) + Test items (4 weeks daily bid): 1% w/w, 30 microL/eye topical twice daily; for OA-RI, ET-1 (6 weeks) + Test items (4 weeks daily bid): week 6. The method, then: (§1) These experiments were performed to determine the effects of [(2S)-1-(4-{[(3-chloro-4-methoxyphenyl)methyl]amino}-5-{[(pyrimidin-2yl)methyl]carbamoyl}pyrimidin-2-yl)pyrrolidin-2-yl]methyl 6-(nitrooxy)hexanoate (Compound (I)) on ocular vascular reactivity and retinal function after ocular topical dosing in a model of ischemia/reperfusion injury of the optic nerve induced by the subtenon injection of endothelin-1 (ET-1) in rabbits.
(§2) Adult male New Zealand white (NZW) rabbits weighting 1.5-2.0 kg were used. All animals received a single 30 microL/eye topical dose of Compound (I) (1% w/w) or vehicle (Kolliphor® EL 5.0% w/w, Myrj™ S40 3.0% w/w, Kollisolv® PEG400 2.8% w/w, H3BO3 0.19% w/w, Na2HPO4·7H2O 0.51% w/w, EDTA 0.10% w/w, BAK 0.01% w/w, HCl 0.5N q.s. pH 6.6, purified water q.s. 100 g) twice daily for 4 consecutive weeks starting 2 weeks after Endothelin-1 (ET-1) first dosing.
(§3) Ischemia/reperfusion injury was induced in each animal by subtenon injection (twice/week for 6 weeks) of 200 microL of 250 nM ET-1 dissolved in water using a lacrimal cannula under anaesthesia produced by ketamine and xylazine injected intramuscularly.
Ophthalmic Artery Resistive Index (OA-RI) measurements were taken using an Echo Color Doppler prior to ET-1 treatment (baseline, time 0), and weekly thereafter till the end of the study. Pourcelot resistive index for ophthalmic artery (OA-RI) was calculated using the following formula: (OA-PSV−OA-EDV)/OA-PSV where OA-PSV and OA-EDV refer to Ophthalmic Artery Peak Systolic Velocity and Ophthalmic Artery End Diastolic Velocity, respectively.
(§4) Measurements were taken prior to ET-1 first dose (baseline, time 0), then at the end of week 2 (prior to vehicle- or Compound (I) first day-first dose) and at the end of week 6.

Data set [3] shares this test system. As to the kind of experiment: Electroretinogram (ERG) recording, ET-1 ischemia/reperfusion model (Example 1). The format is in vivo, New Zealand white (NZW) rabbits. The method, then: as §1, §2, §3
Electroretinogram (ERGs) recording took place under topical anaesthesia. The eyes were also dilated by topical application of tropicamide 1% and, when needed, adapted to darkness for at least 2 hours prior to ERGs recording. ERGs recording were performed with standard contact lens corneal electrodes. Specifically, the dark-adapted 0.01 ERG (mostly rod response), dark-adapted 3.0 ERG (combined rod/cone response) and, light-adapted 3.0 (mostly cone response) were recorded.
as §4

Data set [4] relates to blood flow nearby the optic nerve head and choroid. The settings on record: systemic dosing; British J Ophthalmology 83 (1999); cited from earlier work.

We go through 3 compounds from patent publication US20250170131A1, “METHOD FOR THE TREATMENT OF ANTERIOR ISCHEMIC OPTIC NEUROPATHY” (Nicox SA, priority 2022, published 2025).

“Also recorded” adds a separate entry of the source.

For the compound `COc1ccc(CNc2nc(N3CCC[C@H]3COC(=O)CCCCCO[N+](=O)[O-])ncc2C(=O)NCc2ncccn2)cc1Cl` [Compound (I), [(2S)-1-(4-{[(3-Chloro-4-methoxyphenyl)methyl]amino}-5-{[(pyrimidin-2-yl)methyl]carbamoyl}pyrimidin-2-yl)pyrrolidin-2-yl]methyl 6-(nitrooxy)hexanoate], in data set [1], the “OA-RI, ET-1 + treatment Week 3” value came to 0.41 ± 0.01; the “OA-RI, ET-1 + treatment Week 4” value came to 0.37 ± 0.03; the “OA-RI, ET-1 + treatment Week 5” value was found to be 0.37 ± 0.03; the “OA-RI, ET-1 + treatment Week 6” value stood at 0.39 ± 0.03. In addition, in data set [1], the “OA-RI, ET-1 (1st dose) Week 2” value is 0.46 ± 0.02; the “Effect on OA-RI / ocular perfusion (in words)” value is given as “restored baseline OA-RI by week 6; also recorded: ameliorates ocular perfusion”; the “OA-RI, Baseline Week 0” value turned out to be 0.34 ± 0.02. The “Effect on OA-RI (in words)” value in data set [2] (ET-1 rabbit model, topical dosing) is reported as “reduced ophthalmic artery resistive index (OA-RI)”. For the same compound, in data set [2] (after 2 weeks ET-1 twice weekly, before first dose of test item, mean±SD), the “OA-RI, ET-1 (2 weeks)” value came to 0.48 ± 0.06. Further, in data set [2] (mean±SD), the “Ophthalmic artery resistive index (OA-RI), Baseline” value was determined as 0.40±0.08; the “OA-RI, ET-1 (4-weeks) + Test items (2 weeks daily bid)” value came to 0.43±0.09; the “OA-RI, ET-1 (6 weeks) + Test items (4 weeks daily bid)” value is listed as 0.43±0.04. Besides, in data set [2] (mean±SD, listed as Cpd (I)), the “Ophthalmic artery resistive index (OA-RI), Baseline” value stood at 0.40 ± 0.08; the “OA-RI, ET-1 (4-weeks) + Test items (2 weeks daily bid)” value was found to be 0.43 ± 0.09; the “OA-RI, ET-1 (6 weeks) + Test items (4 weeks daily bid)” value was found to be 0.43 ± 0.04. Moreover, the “Effect on retinal function / ERG (in words)” value in data set [3] (ET-1 rabbit model, 4 weeks topical dosing) is recorded as “increased photoreceptor activity; also recorded: less impairment in the ERG wave amplitude than those treated with vehicle”. In addition, in data set [3] (Light adapted 3.0 (Rod/cone response), 1% w/w, 30 microL/eye topical bid, ± S.D.), the “ERG Amplitude, ET-1 (6 weeks) + Test items (4 weeks daily bid)” value came out at 131.6 ± 46.4 μV. In data set [3] (Light adapted 3.0 (Rod/cone response), before first dose of test item, ± S.D.), the “ERG Amplitude, ET-1 (2 weeks)” value stood at 100.5 ± 33.3 μV. For the same compound, the “ERG Amplitude, Baseline” value in data set [3] (Light adapted 3.0 (Rod/cone response), prior to ET-1, ± S.D.) was determined as 115.9 ± 30.0 μV.
Take `COc1ccc(CNc2nc(N3CCC[C@H]3COC(=O)CCCCCO)ncc2C(=O)NCc2ncccn2)cc1Cl` [Compound (Ia), [(2S)-1-(4-{[(3-Chloro-4-methoxyphenyl)methyl]amino}-5-{[(pyrimidin-2-yl)methyl]carbamoyl}pyrimidin-2-yl)pyrrolidin-2-yl]methyl 6-hydroxyhexanoate, reference compound]: in data set [1], the “OA-RI, ET-1 + treatment Week 3” value came to 0.49 ± 0.00; the “OA-RI, ET-1 + treatment Week 4” value is 0.47 ± 0.01; the “OA-RI, ET-1 + treatment Week 5” value was 0.51+0.02; the “OA-RI, ET-1 + treatment Week 6” value worked out at 0.48 ± 0.07. Besides, in data set [1], the “OA-RI, ET-1 (1st dose) Week 2” value is 0.51 ± 0.01; the “Effect on OA-RI / ocular perfusion (in words)” value is listed as “not effective; also recorded: only resulted in minor activity”; the “OA-RI, Baseline Week 0” value is listed as 0.34 ± 0.02.
As to `O=[N+]([O-])O[C@@H]1CO[C@H]2[C@@H]1OC[C@@H]2O` [ISMN, isosorbide mononitrate], the “Effect on ocular blood flow (in words)” value in data set [4] is “increases blood flow nearby optic nerve head without changes to the choroidal compartment”.
